For test [1], the system named is S. aureus USA300. The experiment in a line: Pneumonia model, survival. The following applies: mice, 2 × 10^9 CFU i.n.; s.c. 100 mg/kg Sal A and/or 75 mg/kg latamoxef every 12 h, 96 h; PBS control 10%. The format is in vivo, C57BL/6J mice. The procedure:
The animal experiments were performed using 6- to 8-week-old female C57BL/6J mice obtained from the Experimental Animal Center of Jilin University and conducted according to the guidelines of the Animal Care and Use Committee of Jilin University. The mouse S. aureus pneumonia model was generated as described previously. Briefly, the mice were anaesthetized with ether and inoculated with 30 μl bacterial resuspension via the left nare. The mice were then held upright to allow the bacteria to be inhaled into the lungs. For the survival assessment, groups of 10 mice were challenged with 2 × 10^9 CFU S. aureus. One hour after intranasal inoculation, the mice were subcutaneously injected with 100 mg/kg of Sal A, 75 mg/kg of latamoxef or 100 mg/kg of Sal A plus 75 mg/kg of latamoxef at 12 h intervals, and survival was assessed for 96 h. For the bacterial load, histopathological, and bronchoalveolar lavage fluid (BALF) experiments, mice were inoculated with 1 × 10^9 CFU S. aureus. The mice were then given a subcutaneous injection of 100 mg/kg Sal A, 75 mg/kg latamoxef or a combination of 100 mg/kg Sal A and 75 mg/kg every 12 h. After 24 h, the left lung of each anaesthetized mouse was aseptically excised and homogenized, and the CFU was determined by serial dilutions. […]

Test [2] concerns S. aureus USA300. The experiment in a line: Pneumonia model, bacterial load and histopathology of the lungs. Conditions: mice, 1 × 10^9 CFU i.n., 24 h. The format is in vivo, C57BL/6J mice. The procedure: The animal experiments were performed using 6- to 8-week-old female C57BL/6J mice obtained from the Experimental Animal Center of Jilin University and conducted according to the guidelines of the Animal Care and Use Committee of Jilin University. The mouse S. aureus pneumonia model was generated as described previously. Briefly, the mice were anaesthetized with ether and inoculated with 30 μl bacterial resuspension via the left nare. The mice were then held upright to allow the bacteria to be inhaled into the lungs. For the survival assessment, groups of 10 mice were challenged with 2 × 10^9 CFU S. aureus. One hour after intranasal inoculation, the mice were subcutaneously injected with 100 mg/kg of Sal A, 75 mg/kg of latamoxef or 100 mg/kg of Sal A plus 75 mg/kg of latamoxef at 12 h intervals, and survival was assessed for 96 h. For the bacterial load, histopathological, and bronchoalveolar lavage fluid (BALF) experiments, mice were inoculated with 1 × 10^9 CFU S. aureus. The mice were then given a subcutaneous injection of 100 mg/kg Sal A, 75 mg/kg latamoxef or a combination of 100 mg/kg Sal A and 75 mg/kg every 12 h. After 24 h, the left lung of each anaesthetized mouse was aseptically excised and homogenized, and the CFU was determined by serial dilutions. The right lungs from each group of mice were excised for histopathological analysis, and the samples were fixed in 10% formalin and stained with haematoxylin and eosin (H&E).

In the case of `CO[C@@]1(NC(=O)C(C(=O)O)c2ccc(O)cc2)C(=O)N2C(C(=O)O)=C(CSc3nnnn3C)CO[C@@H]21` (stereo partly drawn) [latamoxef], the survival rate in the test with S. aureus USA300 [1] was 50%. Also, in the test with S. aureus USA300 [2] (s.c. 100 mg/kg Sal A and/or 75 mg/kg latamoxef every 12 h), the “viable MRSA loads in the lungs in comparison with the control” value is reported as “significantly decreased”. In addition, the “pulmonary inflammation (histopathology of the lungs)” value in the test with S. aureus USA300 [2] (s.c. 100 mg/kg Sal A and/or 75 mg/kg latamoxef, H&E) is reported as “alleviated”.

The record behind these values is article PMC7006784, “The combination of salvianolic acid A with latamoxef completely protects mice against lethal pneumonia caused by methicillin-resistant Staphylococcus aureus” (Emerging Microbes & Infections, 2020).
